From PMC9354954, “Assessing Bioavailability and Bioactivity of 4-Hydroxythiazolidine-2-Thiones, Newly Discovered Glucosinolate Degradation Products Formed During Domestic Boiling of Cabbage” (Frontiers in Nutrition, 2022) come the findings set out here.

Data set [1] can be described thus: Antioxidant potential, DPPH assay. The settings on record: compared to compound free blank. As to the method:
To evaluate the potential of allyl HTT and 4-MSOB HTT to act as antioxidants, ABTS and DPPH were used as model radicals and Trolox as reference antioxidants based on Shalaby and Shanab ([28]). In total, 1.5 mg of ABTS and 0.26 mg potassium peroxodisulfate were dissolved in 4 mL of pure water and incubated in the dark overnight at room temperature. Afterward, 36 mL of MeOH were added to obtain the fresh ABTS working solution. In the case of the DPPH assay, 1.1 mg of DPPH were dissolved in 4 mL of MeOH and incubated for 2 h in the dark at 4°C, followed by the addition of 36 mL of MeOH to obtain the fresh DPPH working solution. Standards of Trolox, allyl HTT, and 4-MSOB HTT were prepared in water/MeOH (90/10, v/v%) at concentrations in the range of 6.25–100 μM. To detect the antioxidant potential, 100 μL of standard or water/MeOH (90/10, v/v%) as control were added to 1,000 μL of ABTS or DPPH working solution, and the extinction was measured directly after mixing and after 6 min of incubation in the dark with a spectrometer (UviLine 9100, Schott Instruments, Mainz, Germany) at 734 nm in the case of ABTS assay and 515 nm in DPPH assay (each prepared as duplicate). The results are reported as mean ± SD of the reduction of the extinction compared to the control.
A general note: DPPH is a stable violet radical that fades when it is reduced.

Data set [2] can be described thus: Stability in an in vitro stomach model. The note with it: 100 μM, 2 h, 37°C, stomach model solution pH 2. The data set is classed as in vitro ADME. As for the experimental part: To investigate the stability of the HTTs in the process of nutrient absorption, allyl HTT and 4-MSOB HTT were incubated (prepared as triplicates) at a concentration of 100 μM in an in vitro stomach model solution containing 2.9 g/L NaCl, 0.7 g/L KCl, 0.27 g/L KH2PO4, 0.78 g/L pepsin, and 3 g/L mucin-type II and adjusted with 1 M HCl to pH 2.0 based on literature ([25]). To simulate the stomach, samples were shaken slightly for 2 h at 200 rpm in a thermoshaker (MHR 23, Hettich Benelux B.V, Netherlands) at 37°C. Afterward, 500 μL of MeCN were added to 500 μL of stomach model solution to precipitate proteins and salts. The suspension was centrifuged for 3 min at 4,000 g and the supernatant was analyzed by HPLC-UV at a wavelength of 274 ± 2 nm. The stability of allyl HTT and 4-MSOB HTT in the stomach model was determined by the recovery compared to incubation in pure water at room temperature. […]

The subject of data set [3] is Caco-2 cells. Briefly: Cytotoxicity, neutral red uptake assay. The data set is classed as cell-based, human. The note with it: Caco-2, neutral red uptake assay, up to 100 μM, 24 h. As to the method: (§1) To determine the cytotoxicity of allyl HTT and 4-MSOB HTT, HepG2 and Caco-2 cells were seeded in a 96-well TC-plate (standard F, sterile, from Sarsted, Nümbrecht, Germany) using a seeding density of 20,000 cells/well. After 24 h, the medium was exchanged to 200 μL pure medium or 200 μL medium containing allyl HTT or 4-MSOB HTT with concentrations in the range of 0.1–100 μM. The cells were treated for 24 h under cell culture conditions (prepared for three biological replicates, every 3 technical replicates). Cell viability was determined using the MTT assay and the neutral red uptake assay based on Schröter et al. ([27]). In the case of MTT assay, after 24 h of HTT treatment, 20 μL of MTT solution (75 mg MTT in 15 mL PBS) were added, and cells were incubated for 60 min under cell culture conditions. Afterward, the supernatant was removed and 100 μL of lysis buffer (5% formic acid in isopropanol) was added and the plate was shaken for 10 min at 300 rpm before measuring the absorption at 550 ± 5 nm (reference 690 ± 5 nm) by a Tecan i-control Infinite M200 PRO plate reader (Crailsheim, Germany). In the case of the neutral red uptake assay, the supernatant was removed after 24 h HTT treatment, and 100 μL neutral red solution (40 mg neutral red in 10 mL PBS, freshly diluted 1:100 with medium and incubated for 24 h under cell culture conditions) was added. After incubation of neutral red solution for 2 h under cell culture conditions, the supernatant was removed, and cells were washed with 150 μL of PBS. After removing PBS, 150 μL desorb solution (49.5% water/49.5% ethanol/1% acetic acid) was added and the plate was shaken for 10 min at 300 rpm before measuring the absorption at 540 ± 5 nm by Tecan i-control Infinite M200 PRO plate reader. The mean ± SD is used for presenting the results of three technical replicates for each data point of the three biological replicates.

In data set [4] the test system is HepG2 cells. Briefly: Cytotoxicity, neutral red uptake assay. The note with it: up to 100 μM, 24 h. The data set is classed as cell-based, human. As for the experimental part: as §1

With `C[S+]([O-])CCCCN1C(=S)SCC1O` (stereo not shown) [4-MSOB HTT, 4-hydroxy-3-(4-(methylsulfinyl)butyl)thiazolidine-2-thione], the “Relative signal reduction of the extinction value of the radical DPPH” value in data set [1] (6.25 µM) was determined as 0.3 ± 0.4%; in data set [1] (12.5 µM), 0.0 ± 0.3%; in data set [1] (25 µM), 0.3 ± 0.3%; in data set [1] (50 µM), 0.3 ± 0.4%; in data set [1] (100 µM) it was 0.3 ± 0.4%. Moreover, the “recovery compared to the pure water control reference” value in data set [2] is 98 ± 3%. The “effect on cell viability compared to untreated cells” value in data set [3] and in data set [4] was “did not show any effect on cell viability” each time.

As for `C=CCN1C(=S)SCC1O` (stereo not shown) [allyl HTT, 3-allyl-4-hydroxythiazolidine-2-thione], the “Relative signal reduction of the extinction value of the radical DPPH” value in data set [1] (6.25 µM) amounted to 0.2 ± 0.3%; in data set [1] (12.5 µM) it was 0.0 ± 0.3%; in data set [1] (25 µM), 0.1 ± 0.3%; in data set [1] (50 µM), 0.1 ± 0.3%; in data set [1] (100 µM) it was 0.0 ± 0.3%. The “recovery compared to the pure water control reference” value in data set [2] was determined as 98 ± 2%. Moreover, the “effect on cell viability compared to untreated cells” value in data set [3] and in data set [4] was “did not show any effect on cell viability” throughout.
